From patent publication US20180085386A1, “URIDINE MONOPHOSPHATE AND TRIPHOSPHATE DERIVATIVES, COMPOSITIONS AND METHODS OF USE” (Tufts University, priority 2016, published 2018)

Assays:
PSAPP mice [1] = experiment: Plaque load in cortex and hippocampus by amyloid beta immunostaining; type: in vivo, mouse; conditions: 10 μg/kg i.p. once per day for 7 days; PS1/APP mice 26 weeks; cortex; FIG. 6B
PSAPP mice [2] = experiment: Contextual fear conditioning test (freezing); type: in vivo, mouse; conditions: vs vehicle
Method: In this study, the diphosphate derivative of compound 5 was injected intraperitoneally into 6 to 7-month-old PSAPP and WT mice daily at two different doses, i.e., 1 μg/kg or 1 mg/kg of the diphosphate derivative of compound 5 (in 1% DMSO/PBS) for 7 consecutive days. Consistent with the results observed following acute UDP or PSB0474 treatment, treatment with the diphosphate derivative of compound 5 increased total freezing percentage in the context test in PSAPP mice (FIG. 4). […] FIG. 4 depicts the results of experiments using the contextual fear conditioning test with PSAPP mice treated with vehicle control (black bar at center of graph). […]
In this study, treatment of PSAPP mice commenced when the mice were pre-symptomatic. […] Following treatment, mice were assessed in a fear conditioning task for memory formation. Subsequently, plaque burden in the mice was also evaluated. […]
Treatment with compound 5 prevented impairments in contextual fear memory. […] Memory is assessed by the percent time that mice “freeze” 24 hours after a fear inducing electric shock. […]
In this study, treatment of PSAPP mice commenced when the mice were pre-symptomatic. […] Following treatment, mice were assessed for the following: concentration of circulating pro-inflammatory cytokines; amyloid beta load (e.g., plaque burden); and memory in a fear conditioning task for memory formation. […]

[3] = Cmax after effective dose of compound 5; conditions: mouse, in vivo, 10 ug/kg; effective dose of 10 μg/kg
PSAPP mice [4] = experiment: Plaque load in cortex and hippocampus by amyloid beta immunostaining; type: in vivo, mouse
Method: PSB0474 was systemically administered to PSAPP mice via intraperitoneal injection for 2, 4 and 6 consecutive days. In one group, prior to evaluation and following to administration for 6 consecutive days, treatment was suspended for two weeks (6+2 weeks group). Brains were then fixed and plaque load was evaluated by immunostaining with the amyloid beta specific antibodies: β1-40 and β1-42. Representative images of plaque load in cortex and hippocampus from animals that received injections of PSB0474 according to the foregoing injection schedules are shown in FIGS. 1(A)-(D). […] Whereas, when administration of PSB0474 was stopped for 2 weeks following six consecutive days of treatment (denoted as the 6+2 weeks group), β1-40 staining rebounded; although to a level lower than observed in mice treated with saline as a vehicle control. […] FIGS. 2C-2F depict data obtained following administration of different dosages of PSB0474.
To generate these graphs showing plaque load, mice were euthanized, brain sections cut and antibodies directed against Aβ42 were used to disclose Aβ plaques. Images were acquired digitally and an algorithm was applied to threshold the image so that plaques were isolated from the background. The algorithm then calculated the percent area of the field of view occupied by the plaques.
Brain samples were collected for Abeta analysis with immunostaining. Brains samples were collected after transcardial perfusion with phosphate buffer and 4% paraformaldehyde. Floating brain sections (40 micron) were collected using a microtome. Immunostaining for […] and Aβ42 were performed according to previously established protocol. Images with DAB staining were collected with brightfield microscopy and analyzed with ImageJ Macro. All data analysis and statistics were performed in GraphPad Prism 6.0.
(§1) In this study, treatment of PSAPP mice commenced when the mice were pre-symptomatic. Specifically, treatment was initiated when the mice were approximately 3 months old. PSAPP mice were treated for 100 days with daily, intraperitoneal injections of 10 μg/kg of compound 5 or vehicle. Following treatment, mice were assessed in a fear conditioning task for memory formation. Subsequently, plaque burden in the mice was also evaluated. The data provided in Examples 16 and 17 is for 19 vehicle treated mice and 22 compound treated mice. The data provided for the vehicle-treated group is the average across those mice, and error bars depict the standard error (SEM). Similarly, the data provided for the compound-treated group is the average across those mice, and the error bars depict the SEM.
as §1, with “assessed for the following: concentration of circulating pro-inflammatory cytokines; amyloid beta load (e.g., plaque burden); and memory” for “assessed”, “formation.” for “formation. Subsequently, plaque burden in the mice was also evaluated.”, “Example 18” for “Examples 16 and 17”, “18” for “19”, “20” for “22”, “SEM. Mice were first evaluated in the fear conditioning task experiment. Subsequently, plasma was taken for multiplex cytokine analysis of circulating levels of cytokine in the plasma. Finally, plaque burden was assessed in the cortex and hippocampus of the mice.” for “SEM.”
In this study, treatment of PSAPP mice commenced after the mice were already symptomatic. Specifically, treatment was initiated when the mice were approximately 6 months old. […]

THP-1 cells = experiment: Cytokine release from human THP-1 cells (multiplex analysis of culture medium); type: cell-based; conditions: FIG. 19
Method: THP-1 cells, a human cell line derived from monocytes, were treated in vitro with vehicle, the P2Y6 receptor antagonist MRS 2578, or compound 5, singly or in combination. THP-1 cells were seeded in 24 well plates at a density of 4×10^5 cells/well in culture medium for 24 hours. Thereafter, vehicle, compound 5, or MRS 2578 (singly or in combination) were added to the cultures for 24 hours. Subsequently the culture medium was aspirated and subjected to multiplex cytokine analysis. Data are presented as means+/−sem. MRS 2578 has a molecular weight of about 472 and is also described using CAS number 711019-86-2.

In the case of `O=c1ccn([C@@H]2O[C@H](CO)C(O)C2O)c(=O)n1Cc1noc2ccccc12` (stereo in doubt) [compound 5], the Aβ42 plaque burden (PSAPP mice [1]) was “significantly reduced”, the “freezing time in contextual fear memory test” value (PSAPP mice [2]; 10 μg/kg i.p. daily for 100 days from ~3 months of age, Example 17, FIG. 8) was “statistically significant increase” and the “freezing time in contextual fear memory test” value (PSAPP mice [2]; 10 μg/kg i.p. daily for 100 days from ~3 months, Example 19, FIG. 15(C)) was “statistically significant increase”. For the same molecule, the Cmax [3] was 13 nM, the plaque size (PSAPP mice [4]; 10 μg/kg i.p. daily for 7 days from ~6 months, Example 20, FIG. 17(B)) was “decrease” and the “Amyloid beta accumulation in the cortex” value (PSAPP mice [4]; 10 μg/kg i.p. daily for 7 days from ~6 months, using Aβ40, Example 20, FIG. 17(A) upper panel) was “decreased”. For the same molecule, the “Amyloid beta accumulation in the hippocampus” value (PSAPP mice [4]; 10 μg/kg i.p. daily for 7 days from ~6 months, using Aβ42, Example 20, FIG. 17(A) lower panel) was “decreased”, the plaque burden (PSAPP mice [4]; 10 μg/kg i.p. daily for 100 days from ~3 months of age, vs vehicle, Example 17, FIG. 9) was “reduced” and the “Amyloid beta accumulation in the cortex” value (PSAPP mice [4]; 10 μg/kg i.p. daily for 100 days from ~3 months, vs vehicle, Example 19, FIG. 15(A)) was “decreased”. The “Amyloid beta accumulation in the hippocampus” value (PSAPP mice [4]; 10 μg/kg i.p. daily for 100 days from ~3 months, vs vehicle, Example 19, FIG. 15(B)) was “decreased”, the “size distribution of remaining plaques” value (PSAPP mice [4]; 10 μg/kg i.p. once per day for 7 days, PS1/APP mice 26 weeks) was “significantly reduced” and the Aβ40 plaque burden (PSAPP mice [4]; 10 μg/kg i.p. once per day for 7 days, PS1/APP mice 26 weeks, cortex, FIG. 6A) was “significantly reduced”. For the same molecule, the “effect of compound 5 on release of IL-7” value (THP-1 cells; co-treatment with MRS 2578) was “abrogated” and the “release of IL-7 into culture media” value (THP-1 cells; compound 5 10 nM, 24 hours, vs vehicle) was “decreased”.
